# From PMC6661766, “Antimicrobial, antioxidant and cytotoxic evaluation of diazenyl chalcones along with insights to mechanism of interaction by molecular docking studies” (BMC Chemistry, 2019)
# Read-outs that look alike come from different tables or passages of the source.
# Key:
# A. fumigatus = assay: Antimicrobial serial tube dilution, MIC and MFC; assay type: cell-based, Aspergillus fumigatus MTCC 2584
# Experimental: (§1) The synthesized diazenyl chalcones (C18 to C27) and controls (dyes A and E, and chalcone) were assessed for their antimicrobial activity by estimation of MIC and MBC/MFC values. […] The stock solutions of the test compounds and standard drugs having a concentration of 1000 µg ml^−1 were prepared by dissolving the used compounds in DMSO. The nutrient broth/Sabouraud dextrose broth was used for the serial dilution of the test compounds and referenced drugs for bacterial and fungal cultures, respectively. […] The size of the final inoculum in each test tube was taken as 5 × 10^5 CFU ml^−1. The incubation of the test and standard compounds of varying concentrations was done for 24 h at 37 ± 2 °C (bacterial culture) and for 48 h at 37 ± 2 °C (C. albicans) and for 7 d at 25 ± 2 °C (A. fumigatus). The diazenyl chalcones (C18–C27), were further evaluated for their bactericidal/fungicidal activity by estimation of MBC/MFC values. […] For proper mixing of culture media, the plates were shaken gently followed by incubation at the predefined temperature and time as stated earlier, followed by the visual inspection of the plates for signs of microbial growth.
# C. albicans = assay: Antimicrobial serial tube dilution, MIC and MFC; assay type: cell-based, Candida albicans MTCC 227
# Experimental: as §1
# fungal strains = assay: Antimicrobial serial tube dilution, ranges over fungal strains; assay type: cell-based; settings: read-out: IC50 against fungal strains
# Experimental: as §1
# B. subtilis = assay: Antimicrobial serial tube dilution, MIC and MBC; assay type: cell-based, Bacillus subtilis MTCC 2063; settings: Bacillus subtilis
# Experimental: as §1
# S. aureus = assay: Antimicrobial serial tube dilution, MIC and MBC; assay type: cell-based, Staphylococcus aureus MTCC 2901; settings: Staphylococcus aureus
# Experimental: as §1
# tested bacterial strains = assay: Antimicrobial serial tube dilution, ranges over several bacterial strains; assay type: cell-based; settings: over tested bacterial strains
# Experimental: as §1
# [1] = test system: HEK human embryonic kidney cells; assay: MTT cytotoxicity assay, HEK; assay type: cell-based; settings: 48 h
# Experimental: (§2) The cell lines employed in the investigation were purchased from the National Centre for Cell Sciences (NCCS), Pune, India. The cell lines were cultured in DMEM fortified with 10% FBS, L-glutamine, sodium bicarbonate, and solution of antibiotics (streptomycin 100 μg ml^−1 + penicillin-100 U ml^−1). The culture of cell lines was stored under 5% CO2 incubation at 37 °C.
# (§3) The compounds showing maximum activity (antimicrobial and antioxidant potential) were screened for cytotoxicity against A549 and HEK cell lines using MTT assay. Initially, 96-well microculture plate was seeded with 1 × 10^4 cells in 100 µl/well DMEM/MEM, supplemented with 10% FBS followed by incubation at a temperature of 37 °C for a period of 24 h under 5% CO2 atmosphere. After that, the test compounds and camptothecin were added to the cells to achieve a concentration of 10, 25, 50 and 100 µg. MTT reagent (10 µl) of concentration of 5 mg ml^−1 added to all the wells after the duration of 48 h. The plate was incubated further for 4 h followed by careful removal of supernatant from each well. To dissolve the formazan crystals, 100 µl of DMSO was added, and the ELISA reader was used to check the absorbance at 570 nm wavelength. In order to calculate the IC50 concentration, the following equation, i.e. A = Bx + C, was used. In this case, A = 50, while the values B and C values were obtained from the survival curve plot. This study was carried out in duplicate.
# B. cereus = assay: Antimicrobial serial tube dilution, MIC and MBC; assay type: cell-based, Bacillus cereus MTCC 1305; settings: Bacillus cereus
# Experimental: as §1
# [2] = DPPH scavenging antioxidant assay
# Experimental: The derivatives (C18–C27) were assessed for their antioxidant potential in the presence of the stable free radical DPPH using ascorbic acid as the standard compound [36, 37]. […] The total volume of 200 µl was used in each well for each concentration of the test and standard drug containing 0.004 µg DPPH. The assay was performed in triplicate at all concentrations of each sample and standard compound. DPPH solutions in methanol at the same concentration without test drugs were used as the control. Each concentration of the sample and standard has a different blank. To minimize evaporation, the plate was covered with the lid and wrapped in aluminium foil and kept in the dark place in order to protect the DPPH radical from degradation by light and left for 30 min. After 30 min of incubation, the plate was kept in ELISA reader to measure the absorbance values at 517 nm. The experiment was performed in triplicate. The antioxidant activity of each sample was then calculated as per cent inhibition of DPPH according to the following equation: %decolourationofDPPH=ControlAbs-SampleAbs×100/ControlAbs
# [3] = test system: A549 human lung cancer cell line; assay: MTT cytotoxicity assay, A549; assay type: cell-based; settings: Homo sapiens, A549; MTT, 48 h
# Experimental: as §2, §3
# E. coli = assay: Antimicrobial serial tube dilution, MIC and MBC; assay type: cell-based, Escherichia coli MTCC 1652; settings: Escherichia coli
# Experimental: as §1
# S. typhi = assay: Antimicrobial serial tube dilution, MIC and MBC; assay type: cell-based, Salmonella typhi MTCC 3216; settings: Salmonella enterica, TYPHI
# Experimental: as §1
# [4] = test system: HEK human embryonic kidney cells; set-up: method as in PMID 27302903; settings: cited from earlier work
smiles,measurement,setting,value
"OC(Cn1cncn1)(Cn1cncn1)c1ccc(F)cc1F [Fluconazole, fluconazole, reference compound]",MIC,"A. fumigatus; Aspergillus fumigatus, 168 h; 7 d at 25 ± 2 °C; read-out: A. fumigatus MIC",15.6 µg/mL
same,MFC,A. fumigatus; Aspergillus fumigatus; read-out: A. fumigatus MFC,125 µg/mL
same,MIC,C. albicans; Candida albicans; 48 h at 37 ± 2 °C; read-out: C. albicans MIC,7.81 µg/mL
same,MFC,C. albicans; Candida albicans; read-out: C. albicans MFC,31.2 µg/mL
same,IC50,fungal strains,7.81 to 15.6 µg/mL
"O=C(/C=C\c1cc(Br)ccc1O)c1ccc(N=Nc2ccc([N+](=O)[O-])cc2Cl)c(O)c1 [Compound C-22, (2Z)-3-(5-Bromo-2-hydroxyphenyl)-1-(4-((2-chloro-4-nitrophenyl)diazenyl)-3-hydroxyphenyl) prop-2-en-1-one]",MIC,"B. subtilis; 24 h, read-out: B. subtilis MIC",1.95 µg/mL
same,MBC,B. subtilis; read-out: B. subtilis MBC,7.81 µg/mL
same,melting point,,160 to 162 °C
same,MIC,"S. aureus; 24 h, read-out: S. aureus MIC",3.9 µg/mL
same,MBC,S. aureus; read-out: S. aureus MBC,31.2 µg/mL
same,MIC,"A. fumigatus; Aspergillus fumigatus, 168 h, read-out: A. fumigatus MIC",62.5 µg/mL
same,MFC,"A. fumigatus; Aspergillus fumigatus, read-out: A. fumigatus MFC",125 µg/mL
same,MBC range,tested bacterial strains,3.90 to 7.81 µg/mL
same,MIC range,tested bacterial strains,1.95 to 3.90 µg/mL
same,IC50,[1],296.4 ± 2.32 µg/mL
same,MIC,"B. cereus; 24 h, read-out: B. cereus MIC",3.9 µg/mL
same,MBC,B. cereus; read-out: B. cereus MBC,3.9 µg/mL
same,MIC,"C. albicans; Candida albicans, 48 h, read-out: C. albicans MIC",31.2 µg/mL
same,MFC,"C. albicans; Candida albicans, read-out: C. albicans MFC",31.2 µg/mL
same,IC50 DPPH,[2],> 100 µg/mL
same,% inhibition of DPPH,[2]; 1.56 µg ml^−1,8.25%
same,% inhibition of DPPH,[2]; 3.12 µg ml^−1,9.26%
same,% inhibition of DPPH,[2]; 6.25 µg ml^−1,10.25%
same,% inhibition of DPPH,[2]; 12.5 µg ml^−1,11.79%
same,% inhibition of DPPH,[2]; 25 µg ml^−1,14.15%
same,% inhibition of DPPH,[2]; 50 µg ml^−1,16.34%
same,% inhibition of DPPH,[2]; 100 µg ml^−1,23.27%
same,IC50,[3],156.4 ± 1.23 µg/mL
same,MIC,"E. coli; 24 h, read-out: E. coli MIC, 24 h at 37 ± 2 °C",1.95 µg/mL
same,MBC,E. coli; read-out: E. coli MBC,7.81 µg/mL
same,MIC,"S. typhi; 24 h, read-out: S. typhi MIC",3.9 µg/mL
same,MBC,S. typhi; read-out: S. typhi MBC,7.81 µg/mL
"CC[C@@]1(O)C(=O)OCc2c1cc1n(c2=O)Cc2cc3ccccc3nc2-1 [Std, camptothecin, reference compound]",IC50,[3],8.7 µg/mL
same,HEK IC50,[4],9.0 [28] µg ml^−1
